Experimental data taken from the supplement of paper PMC10307832.

What was measured:
Test in all cases: relative viability (nuclei count vs DMSO), 5 days (fraction); higher = more cells survive
EMC-BAC-2 = tested on: EMC-BAC-2
How it was run: (§1)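 Each reported value is a median over duplicate plates. It expresses relative viability: treated-well nuclei count divided by vehicle-well nuclei count. Lung cancer cell lines in 1536-well plates were dosed by pin tool a day after seeding, alone with one drug or with a fixed anchor-drug dose plus five library-drug doses (not always all listed) in √10 steps, and nuclei were counted after 5 days.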

NCI-H1993 = tested on: NCI-H1993
How it was run: as §1

ABC-1 = tested on: ABC-1
How it was run: as §1

NCI-H1395 = tested on: NCI-H1395
How it was run: as §1

NCI-H358 = tested on: NCI-H358
How it was run: as §1

HARA = tested on: HARA
How it was run: as §1

LC-2-ad = tested on: LC-2-ad
How it was run: as §1

ChaGo-K-1 = tested on: ChaGo-K-1
How it was run: as §1

NCI-H1944 = tested on: NCI-H1944
How it was run: as §1

NCI-H838 = tested on: NCI-H838
How it was run: as §1

NCI-H1793 = tested on: NCI-H1793
How it was run: as §1

NCI-H2126 = tested on: NCI-H2126
How it was run: as §1

HCC-15 = tested on: HCC-15
How it was run: as §1

NCI-H23 = tested on: NCI-H23
How it was run: as §1

NCI-H2405 = tested on: NCI-H2405
How it was run: as §1

HCC-78 = tested on: HCC-78
How it was run: as §1

HOP-62 = tested on: HOP-62
How it was run: as §1

HCC-366 = tested on: HCC-366
How it was run: as §1

Which results are given for O=c1cc(-c2cccc3c2Sc2ccccc2S3)oc(N2CCOCC2)c1 + NC(=O)Nc1cc(-c2cccc(F)c2)sc1C(=O)N[C@H]1CCCNC1 [AZD7762] (partner 0.2 µM)?
relative viability (EMC-BAC-2; first compound 0.08 µM): 1.06; relative viability (EMC-BAC-2; first compound 0.253 µM): 1.37; relative viability (EMC-BAC-2; first compound 0.8 µM): 0.952; relative viability (EMC-BAC-2; first compound 2.53 µM): 1.11; relative viability (EMC-BAC-2; first compound 8 µM): 1.2; relative viability (NCI-H1993; first compound 0.08 µM): 0.707; relative viability (NCI-H1993; first compound 0.253 µM): 0.763; relative viability (NCI-H1993; first compound 0.8 µM): 0.556; relative viability (NCI-H1993; first compound 2.53 µM): 0.749; relative viability (NCI-H1993; first compound 8 µM): 0.728; relative viability (ABC-1; first compound 0.08 µM): 0.738; relative viability (ABC-1; first compound 0.253 µM): 0.7; relative viability (ABC-1; first compound 0.8 µM): 0.714; relative viability (ABC-1; first compound 2.53 µM): 1; relative viability (ABC-1; first compound 8 µM): 0.875; relative viability (NCI-H1395; first compound 0.08 µM): 0.384; relative viability (NCI-H1395; first compound 0.253 µM): 0.395; relative viability (NCI-H1395; first compound 0.8 µM): 0.378; relative viability (NCI-H1395; first compound 2.53 µM): 0.373; relative viability (NCI-H1395; first compound 8 µM): 0.418; relative viability (NCI-H358; first compound 0.08 µM): 0.456; relative viability (NCI-H358; first compound 0.253 µM): 0.581; relative viability (NCI-H358; first compound 0.8 µM): 0.523; relative viability (NCI-H358; first compound 2.53 µM): 0.501; relative viability (NCI-H358; first compound 8 µM): 0.534; relative viability (HARA; first compound 0.08 µM): 0.234; relative viability (HARA; first compound 0.253 µM): 0.327; relative viability (HARA; first compound 0.8 µM): 0.364; relative viability (HARA; first compound 2.53 µM): 0.208; relative viability (HARA; first compound 8 µM): 0.256; relative viability (LC-2-ad; first compound 0.08 µM): 0.805; relative viability (LC-2-ad; first compound 0.253 µM): 0.944; relative viability (LC-2-ad; first compound 0.8 µM): 0.853; relative viability (LC-2-ad; first compound 2.53 µM): 0.741; relative viability (LC-2-ad; first compound 8 µM): 0.797; relative viability (ChaGo-K-1; first compound 0.08 µM): 0.827; relative viability (ChaGo-K-1; first compound 0.253 µM): 0.942; relative viability (ChaGo-K-1; first compound 0.8 µM): 0.779; relative viability (ChaGo-K-1; first compound 2.53 µM): 0.889; relative viability (ChaGo-K-1; first compound 8 µM): 0.975; relative viability (NCI-H1944; first compound 0.08 µM): 0.54; relative viability (NCI-H1944; first compound 0.253 µM): 0.456; relative viability (NCI-H1944; first compound 0.8 µM): 0.48; relative viability (NCI-H1944; first compound 2.53 µM): 0.55; relative viability (NCI-H1944; first compound 8 µM): 0.51; relative viability (NCI-H838; first compound 0.08 µM): 0.933; relative viability (NCI-H838; first compound 0.253 µM): 1.09; relative viability (NCI-H838; first compound 0.8 µM): 0.898; relative viability (NCI-H838; first compound 2.53 µM): 0.941; relative viability (NCI-H838; first compound 8 µM): 0.98; relative viability (NCI-H1793; first compound 0.08 µM): 0.299; relative viability (NCI-H1793; first compound 0.253 µM): 0.48; relative viability (NCI-H1793; first compound 0.8 µM): 0.458; relative viability (NCI-H1793; first compound 2.53 µM): 0.182; relative viability (NCI-H1793; first compound 8 µM): 0.377; relative viability (NCI-H2126; first compound 0.08 µM): 1.02; relative viability (NCI-H2126; first compound 0.253 µM): 1.16; relative viability (NCI-H2126; first compound 0.8 µM): 1.04; relative viability (NCI-H2126; first compound 2.53 µM): 1.03; relative viability (NCI-H2126; first compound 8 µM): 1.04; relative viability (HCC-15; first compound 0.08 µM): 1.22; relative viability (HCC-15; first compound 0.253 µM): 1.51; relative viability (HCC-15; first compound 0.8 µM): 1.18; relative viability (HCC-15; first compound 2.53 µM): 1.18; relative viability (HCC-15; first compound 8 µM): 1.28; relative viability (NCI-H23; first compound 0.08 µM): 0.205; relative viability (NCI-H23; first compound 0.253 µM): 0.251; relative viability (NCI-H23; first compound 0.8 µM): 0.349; relative viability (NCI-H23; first compound 2.53 µM): 0.203; relative viability (NCI-H23; first compound 8 µM): 0.229; relative viability (NCI-H2405; first compound 0.08 µM): 0.691; relative viability (NCI-H2405; first compound 0.253 µM): 0.808; relative viability (NCI-H2405; first compound 0.8 µM): 0.731; relative viability (NCI-H2405; first compound 2.53 µM): 0.64; relative viability (NCI-H2405; first compound 8 µM): 0.661; relative viability (HCC-78; first compound 0.08 µM): 0.624; relative viability (HCC-78; first compound 0.253 µM): 0.643; relative viability (HCC-78; first compound 0.8 µM): 0.472; relative viability (HCC-78; first compound 2.53 µM): 0.614; relative viability (HCC-78; first compound 8 µM): 0.655; relative viability (HOP-62; first compound 0.08 µM): 0.477; relative viability (HOP-62; first compound 0.253 µM): 0.61; relative viability (HOP-62; first compound 0.8 µM): 0.869; relative viability (HOP-62; first compound 2.53 µM): 0.493; relative viability (HOP-62; first compound 8 µM): 0.944; relative viability (HCC-366; first compound 0.08 µM): 0.258; relative viability (HCC-366; first compound 0.253 µM): 0.32; relative viability (HCC-366; first compound 0.8 µM): 0.302; relative viability (HCC-366; first compound 2.53 µM): 0.118; relative viability (HCC-366; first compound 8 µM): 0.222
